This note sets out measurements from patent publication US9938301B2, “Dihydropyrimido fused ring derivative as HBV inhibitor” (QILU PHARMACEUTICAL CO., LTD., priority 2014, dated 2018).

The test system of assay [1] is HBV DNA in HepG2.2.15 cells. As to the kind of experiment: HBV in vitro dot-blot hybridization test. In kind it is cell-based, Hepatitis B virus. The following applies: Hepatitis B virus. An outline of the steps: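 HepG2.2.15 cells (4×10^4/well) treated in duplicate with 6 five-fold compound dilutions (1% DMSO final), medium with compound renewed on day 5, cells harvested day 8-9. Intracellular HBV DNA quantified by dot-blot with DIG-labelled probe; % inhibition normalised to 1 μM GLS4 (100%) and DMSO (0%), EC50 fitted.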

Assay [2] has as its system HBV DNA in HepG2.2.15 cells. As to the kind of experiment: HBV in vitro assay quantitive qPCR test. As to conditions: Hepatitis B virus. In kind it is cell-based. On the procedure:
• 1 Purpose of the test: • The content of HBV DNA in HepG2.2.15 cells was detected by real time quantitive qPCR test to evaluate an inhibitory action of the compound on HBV with an EC50 value of the compound as an indicator. • 2 Experimental materials: • 2.1 Cell lines: HepG2.2.15 Cells • HepG2.2.15 cell culture media (DMEM/F12, Invitrogen-11330057; 10% serum, Invitrogen-10099141; 100 units/ml Penicillin and 10 μg/ml Streptomycin, Invitrogen-15140122; 1% non-essential amino acid, Invitrogen-1140076; 2 mM L-GLUTAMINE, Invitrogen-25030081; 300 μg/ml Geneticin, Invitrogen-10131027 • 2.2 Reagents: • trypsin (Invitrogen-25300062) • DPBS (Hyclone-SH30028.01B) • DMSO (Sigma-D2650-100ML) • High-Throughput DNA Purification Kit (QIAamp 96 DNA Blood Kit, Qiagen-51162) • Quantitative Fast Start Universal Probe Reagent (FastStart Universal Probe Master, Roche-04914058001) • 2.3 Materials and Instruments: • 96-well cell culture plate (Corning-3599) • CO2 Incubator (HERA-CELL-240) • Optical Sealing Membrane (ABI-4311971) • Quantitative PCR 96-well Plate (Applied Biosystems-4306737) • Fluorescent Quantitative PCR Instrument (Applied Biosystems-7500 real time PCR system) • 3. Testing steps and Methods: • 3.1 HepG2.2.15 cells (4×10^4 cells/well) were planted into a 96-well plate, and at 37° C., 5% CO2 cultured overnight. • 3.2 On Day 2, the compounds were diluted in totally 8 concentrations with a dilution gradient of three times. The compounds at different concentrations were added into the culture wells in duplicate. The final concentration of DMSO in the culture media was 1%. 1 μM GLS4 was used as 100% inhibition control; 1% DMSO as 0% inhibition control. • 3.3 On Day 5, replacing with the fresh culture media containing the compound was performed. • 3.4 On Day 8, the culture media in the culture wells was collected, and DNA was extracted with a High-Throughput DNA Purification Kit (Qiagen-51162), See Specification of the product for specific steps. • 3.5 Preparation of PCR Reaction Mixture was shown in Table 1:
• 3.6 To each well of a 96-well PCR plate was added 15 μl reaction mixture, and then to each well was added 10 μl sample DNA or HBV DNA standard. • 3.7 The reaction conditions of PCR were: heating at 95° C. for 10 minutes; then at 95° C. denaturing for 15 seconds, and at 60° C. extending for 1 minute, totally 40 cycles. • 3.8 Data Analysis: • 3.8.1 The inhibition percentage was calculated: % Inh.=[1−(DNA copy number in sample−DNA copy number in 1 μM GLS4)/(DNA copy number in DMSO control−DNA copy number in 1 μM GLS4)]×100. • 3.8.2 Calculating EC50: the concentration of the compound for 50% inhibition of HBV (EC50) was calculated by using GraphPad Prism Software. • 4 Testing Results • The testing results were shown in Table 3: […]

The mark [3] stands for this setting: HepG2.2.15, dot-blot hybridization assay, read-out: Concentration for 50% inhibition of HBV (EC50)value.
The mark [4] stands for this setting: HepG2.2.15, summary list of target compounds, Examples 1-165 (same as Table 2), read-out: BIOACTIVITY (inhibitory actions on HBV DNA, EC50).
[5] abbreviates: qPCR assay, HepG2.2.15 cells, read-out: Concentration for 50% inhibition of HBV (EC50)value.
Where [6] appears, read: summary list of target compounds, Examples 166-220 (values of Table 3), HepG2.2.15 cells, read-out: BIOACTIVITY (inhibitory actions on HBV DNA, EC50).
[7] abbreviates: HepG2.2.15, read-out: BIOACTIVITY (inhibitory actions on HBV DNA, EC50).
Setting [8] is: HepG2.2.15, read-out: Concentration for 50% inhibition of HBV (EC50)value.

With `CCOC(=O)C1=C2C[C@H](NS(C)(=O)=O)CN2C(c2nncs2)=N[C@H]1c1ccc(F)cc1Cl` [Example 154], the EC50 in assay [1] (setting [3]) and in assay [1] (setting [4]) was 100 to 500 nM throughout.

For the compound `COC(=O)C1=C2C[C@H](NS(=O)(=O)C(F)(F)F)CN2C(c2nccs2)=N[C@H]1c1ccc(F)cc1Cl` [Example 155], the EC50 in assay [1] (setting [3]) and in assay [1] (setting [4]) was < 100 nM throughout.

`COC(=O)C1=C2C[C@H](NS(=O)(=O)C3CC3)CN2C(c2nccs2)=N[C@H]1c1ccc(F)cc1Cl` [Example 156]: the EC50 in assay [1] (setting [3]) and in assay [1] (setting [4]) was < 100 nM each time.

With `CCOC(=O)C1=C2C[C@H](N(C)S(C)(=O)=O)CN2C(c2nccs2)=N[C@H]1c1ccc(F)cc1Cl` [Example 157], the EC50 in assay [1] (setting [3]) and in assay [1] (setting [4]) was < 100 nM throughout.

Turning to `CCS(=O)(=O)N[C@H]1CC2=C(C(=O)OC)[C@H](c3ccc(F)cc3Cl)N=C(c3nccs3)N2C1` [Example 158], the EC50 in assay [1] (setting [3]) and in assay [1] (setting [4]) was < 100 nM each time.

For the compound `COC(=O)C1=C2C[C@H](NS(N)(=O)=O)CN2C(c2nccs2)=N[C@H]1c1ccc(F)cc1Cl` [Example 159], the EC50 in assay [1] (setting [3]) and in assay [1] (setting [4]) was < 100 nM each time.

Regarding `CNS(=O)(=O)N[C@H]1CC2=C(C(=O)OC)[C@H](c3ccc(F)cc3Cl)N=C(c3nccs3)N2C1` [Example 160], the EC50 in assay [1] (setting [3]) and in assay [1] (setting [4]) was < 100 nM in each case.

`COC(=O)C1=C2C[C@H](NS(=O)(=O)CCO)CN2C(c2nccs2)=N[C@H]1c1ccc(F)cc1Cl` [Example 161]: the EC50 in assay [1] (setting [3]) and in assay [1] (setting [4]) was < 100 nM each time.

Turning to `COC(=O)C1=C2C[C@H](NC(C)=O)CN2C(c2nccs2)=N[C@H]1c1ccc(F)cc1Cl` [Example 162], the EC50 in assay [1] (setting [3]) and in assay [1] (setting [4]) was 100 to 500 nM throughout.

Turning to `COC(=O)N[C@H]1CC2=C(C(=O)OC)[C@H](c3ccc(F)cc3Cl)N=C(c3nccs3)N2C1` [Example 163], the EC50 in assay [1] (setting [3]) and in assay [1] (setting [4]) was < 100 nM throughout.

On to `COC(=O)C1=C2C[C@H](NS(C)(=O)=O)CN2C(c2nccs2)=N[C@H]1c1ccc(F)c(Cl)c1` [Example 164], for which the EC50 in assay [1] (setting [3]) and in assay [1] (setting [4]) was 1000 to 5000 nM throughout.

In the case of `COC(=O)C1=C2C[C@H](NS(C)(=O)=O)CN2C(c2nccs2)=N[C@H]1c1cccc(F)c1Cl` [Example 165], the EC50 in assay [1] (setting [3]) and in assay [1] (setting [4]) was < 100 nM in each case.

On to `COC(=O)C1=C2C[C@H](NS(=O)(=O)CCN(C)C)CN2C(c2nccs2)=N[C@H]1c1ccc(F)cc1Cl` [Example 166], for which the EC50 in assay [2] (setting [5]) and in assay [2] (setting [6]) was < 100 nM in each case.

In the case of `COC(=O)C1=C2C[C@H](NS(C)(=O)=O)CN2C(c2nccs2)=N[C@H]1c1ccc(F)c(F)c1F` [Example 167], the EC50 in assay [2] (setting [5]) and in assay [2] (setting [6]) was < 100 nM throughout.

On to `COC(=O)C1=C2C[C@H](NS(C)(=O)=O)CN2C(c2nccs2)=N[C@@H]1c1ccc(F)c(F)c1F` [Example 168], for which the EC50 in assay [2] (setting [5]) and in assay [2] (setting [6]) was 100 to 500 nM in each case.

With `COC(=O)C1=C2C[C@H](N(C)S(C)(=O)=O)CN2C(c2nccs2)=N[C@H]1c1ccc(F)cc1Cl` [Example 169], the EC50 in assay [2] (setting [5]) and in assay [2] (setting [6]) was < 100 nM each time.

As for `COC(=O)C1=C2C[C@H](NS(=O)(=O)C(C)(C)C)CN2C(c2nccs2)=N[C@H]1c1ccc(F)cc1Cl` [Example 170], the EC50 in assay [2] (setting [5]) and in assay [2] (setting [6]) was < 100 nM in each case.

On to `COC(=O)C1=C2C[C@H](NS(=O)(=O)CCN)CN2C(c2nccs2)=N[C@H]1c1ccc(F)cc1Cl` [Example 171], for which the EC50 in assay [2] (setting [5]) and in assay [2] (setting [6]) was < 100 nM in each case.

In the case of `COC(=O)CS(=O)(=O)N[C@H]1CC2=C(C(=O)OC)[C@H](c3ccc(F)cc3Cl)N=C(c3nccs3)N2C1` [Example 172], the EC50 in assay [2] (setting [5]) and in assay [2] (setting [6]) was < 100 nM throughout.

Take `COC(=O)C1=C2C[C@H](NC(=O)C3CC3)CN2C(c2nccs2)=N[C@H]1c1ccc(F)cc1Cl` [Example 173]: the EC50 in assay [2] (setting [5]) and in assay [2] (setting [6]) was < 100 nM in each case.

With `CCOP(=O)(N[C@H]1CC2=C(C(=O)OC)[C@H](c3ccc(F)cc3Cl)N=C(c3nccs3)N2C1)OCC` [Example 174], the EC50 in assay [2] (setting [7]) and in assay [2] (setting [8]) was 100 to 500 nM throughout.

On to `COC(=O)C1=C2C[C@H](NS(=O)(=O)O)CN2C(c2nccs2)=N[C@H]1c1ccc(F)cc1Cl` [Example 175], for which the EC50 in assay [2] (setting [5]) and in assay [2] (setting [6]) was 1000 to 5000 nM each time.

As for `CCOC(=O)C1=C2CN(CCO)S(=O)(=O)CN2C(c2nccs2)=N[C@H]1c1ccc(F)cc1Cl` [Example 176], the EC50 in assay [2] (setting [5]) and in assay [2] (setting [6]) was 1000 to 5000 nM each time.

Regarding `COC(=O)C1=C2C[C@H](NS(C)(=O)=O)CN2C(c2nccs2)=N[C@H]1c1sccc1Cl` [Example 177], the EC50 in assay [2] (setting [7]) and in assay [2] (setting [8]) was < 100 nM in each case.

As to `COC(=O)C1=C2C[C@@H](NS(C)(=O)=O)CN2C(c2nccs2)=N[C@@H]1c1ccc(F)cc1Cl` [Example 178], the EC50 in assay [2] (setting [5]) and in assay [2] (setting [6]) was 100 to 500 nM each time.

For the compound `COC(=O)C1=C2C[C@H](N(CC(F)F)S(C)(=O)=O)CN2C(c2nccs2)=N[C@H]1c1ccc(F)cc1Cl` [Example 179], the EC50 in assay [2] (setting [5]) and in assay [2] (setting [6]) was 100 to 500 nM each time.

Regarding `COC(=O)C1=C2C[C@H](NS(C)(=O)=O)CN2C(c2nccs2)=N[C@H]1c1ccc(F)cc1C` [Example 180], the EC50 in assay [2] (setting [5]) and in assay [2] (setting [6]) was < 100 nM in each case.

As to `COC(=O)C1=C2C[C@@H](NS(C)(=O)=O)CN2C(c2nccs2)=N[C@H]1c1ccc(F)cc1Cl` [Example 181], the EC50 in assay [2] (setting [5]) and in assay [2] (setting [6]) was < 100 nM throughout.

As to `COC(=O)C1=C2C[C@H](N(CC#N)S(C)(=O)=O)CN2C(c2nccs2)=N[C@H]1c1ccc(F)cc1Cl` [Example 182], the EC50 in assay [2] (setting [5]) and in assay [2] (setting [6]) was < 100 nM throughout.

Turning to `CCN([C@H]1CC2=C(C(=O)OC)[C@H](c3ccc(F)cc3Cl)N=C(c3nccs3)N2C1)S(C)(=O)=O` [Example 183], the EC50 in assay [2] (setting [5]) and in assay [2] (setting [6]) was < 100 nM throughout.

Take `COC(=O)C1=C2C[C@H](N(C(C)C)S(C)(=O)=O)CN2C(c2nccs2)=N[C@H]1c1ccc(F)cc1Cl` [Example 184]: the EC50 in assay [2] (setting [5]) and in assay [2] (setting [6]) was 100 to 500 nM throughout.

In the case of `COC(=O)C1=C2C[C@H](NS(=O)(=O)OC)CN2C(c2nccs2)=N[C@H]1c1ccc(F)cc1Cl` [Example 185], the EC50 in assay [2] (setting [5]) and in assay [2] (setting [6]) was < 100 nM each time.

Consider `COC(=O)C1=C2C[C@H](N(CC(=O)O)S(C)(=O)=O)CN2C(c2nccs2)=N[C@H]1c1ccc(F)cc1Cl` [Example 186], for which the EC50 in assay [2] (setting [5]) and in assay [2] (setting [6]) was 1000 to 5000 nM in each case.

With `COC(=O)C1=C2C[C@H](N3CCCS3(=O)=O)CN2C(c2nccs2)=N[C@H]1c1ccc(F)cc1Cl` [Example 187], the EC50 in assay [2] (setting [5]) and in assay [2] (setting [6]) was < 100 nM throughout.

For `COC(=O)C1=C2C[C@H](N(CCO)S(C)(=O)=O)CN2C(c2nccs2)=N[C@H]1c1ccc(F)cc1Cl` [Example 188], the EC50 in assay [2] (setting [5]) and in assay [2] (setting [6]) was < 100 nM in each case.
